According to ChEMBL document CHEMBL1140524, “Facile one-pot synthesis of thio and selenourea derivatives: a new class of potent urease inhibitors” (Bioorg Med Chem Lett, 2007):
Activity calls are given as the source filed them. The rule behind the calls is not given here.

Legend:
[1] = target: Urease (Canavalia ensiformis, UniProt P07374); test: (§1) Inhibition of jack bean urease
[2] = target: Urease (Canavalia ensiformis) (UniProt P07374); test: as §1
Urease (Canavalia ensiformis), sequence (P07374 whole entry, looked up): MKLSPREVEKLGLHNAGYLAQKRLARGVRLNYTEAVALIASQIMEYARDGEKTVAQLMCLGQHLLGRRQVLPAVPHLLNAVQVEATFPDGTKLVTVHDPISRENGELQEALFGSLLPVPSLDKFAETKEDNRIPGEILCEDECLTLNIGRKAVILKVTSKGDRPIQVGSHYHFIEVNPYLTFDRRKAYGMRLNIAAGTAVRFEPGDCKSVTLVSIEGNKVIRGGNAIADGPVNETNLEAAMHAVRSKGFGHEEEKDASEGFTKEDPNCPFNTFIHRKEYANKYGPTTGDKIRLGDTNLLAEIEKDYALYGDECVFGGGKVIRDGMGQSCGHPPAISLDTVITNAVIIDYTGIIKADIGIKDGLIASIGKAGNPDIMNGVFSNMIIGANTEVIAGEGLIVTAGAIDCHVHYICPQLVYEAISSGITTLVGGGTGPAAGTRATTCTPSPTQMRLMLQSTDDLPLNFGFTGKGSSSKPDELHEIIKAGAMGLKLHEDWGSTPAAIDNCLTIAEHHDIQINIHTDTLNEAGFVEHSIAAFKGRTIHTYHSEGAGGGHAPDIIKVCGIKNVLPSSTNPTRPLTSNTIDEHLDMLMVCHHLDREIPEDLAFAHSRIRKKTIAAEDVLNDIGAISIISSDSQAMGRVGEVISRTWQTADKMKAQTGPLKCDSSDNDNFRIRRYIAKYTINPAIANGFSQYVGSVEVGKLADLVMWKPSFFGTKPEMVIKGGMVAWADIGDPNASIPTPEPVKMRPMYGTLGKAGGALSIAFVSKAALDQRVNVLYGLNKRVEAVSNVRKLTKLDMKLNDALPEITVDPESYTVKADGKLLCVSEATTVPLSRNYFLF

Urease, sequence (P07374 whole entry): as the sequence (P07374 whole entry, looked up) above

| Structure (SMILES) | Ki [1] [nM] | Activity [2] |
| --- | --- | --- |
| CC(C)N(C(=[Se])N(C)C)C1CCCCC1 | 25 |  |
| CN(C)C(=S)N1CCOCC1 |  | inactive |
| CCCCCCCCCCCCNC(=S)N(C)C | 124 |  |
| CN(C)C(=[Se])N1CCOCC1 |  | inactive |
| CN(C)C(=[Se])NCc1ccc(Br)cc1 | 135 |  |
| CN(C)C(=S)Nc1ccc(Br)cc1 | 255 |  |
| C[C@H](NC(=[Se])N(C)C)c1cccc2ccccc12 | 94 |  |
